Measurements reported in PubChem BioAssay (NCI).
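Protocol summary: plate cells (96-well), add compound at 5 concentrations, incubate 48 h, interpolate endpoints linearly. At the TGI there is no net growth.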

Key:
Experiment in all cases: NCI tumour cell line growth inhibition, 48 h
OVCAR-3 ovarian = tested on: OVCAR-3 ovarian
MALME-3M melanoma = tested on: MALME-3M melanoma
UACC-62 melanoma = tested on: UACC-62 melanoma
MDA-N = tested on: MDA-N
HOP-92 NSCLC = tested on: HOP-92 NSCLC
NCI/ADR-RES ovarian = tested on: NCI/ADR-RES ovarian
NCI-H460 lung = tested on: NCI-H460 lung
SK-OV-3 ovarian = tested on: SK-OV-3 ovarian
COLO 205 colon = tested on: COLO 205 colon
HT29 colon = tested on: HT29 colon
LOX IMVI melanoma = tested on: LOX IMVI melanoma
SK-MEL-5 melanoma = tested on: SK-MEL-5 melanoma
SF-539 CNS = tested on: SF-539 CNS
786-0 renal = tested on: 786-0 renal
KM12 colon = tested on: KM12 colon
SF-268 CNS = tested on: SF-268 CNS
HOP-62 NSCLC = tested on: HOP-62 NSCLC
SNB-19 CNS = tested on: SNB-19 CNS
MDA-MB-435 = tested on: MDA-MB-435
A549 NSCLC = tested on: A549 NSCLC
SNB-75 CNS = tested on: SNB-75 CNS
EKVX NSCLC = tested on: EKVX NSCLC
CAKI-1 renal = tested on: CAKI-1 renal
OVCAR-8 ovarian = tested on: OVCAR-8 ovarian
SN12C renal = tested on: SN12C renal
PC-3 prostate = tested on: PC-3 prostate
U251 CNS = tested on: U251 CNS
SW-620 colon = tested on: SW-620 colon
BT-549 breast = tested on: BT-549 breast
OVCAR-5 ovarian = tested on: OVCAR-5 ovarian
NCI-H226 lung = tested on: NCI-H226 lung
NCI-H522 lung = tested on: NCI-H522 lung
MDA-MB-231 breast = tested on: MDA-MB-231 breast
DU-145 prostate = tested on: DU-145 prostate
ACHN renal = tested on: ACHN renal
TK-10 renal = tested on: TK-10 renal
M14 melanoma = tested on: M14 melanoma
A498 renal = tested on: A498 renal
HL-60(TB) leukemia = tested on: HL-60(TB) leukemia
T-47D breast = tested on: T-47D breast
K-562 leukemia = tested on: K-562 leukemia
UO-31 renal = tested on: UO-31 renal
SF-295 CNS = tested on: SF-295 CNS
MOLT-4 leukemia = tested on: MOLT-4 leukemia
HCT-116 colon = tested on: HCT-116 colon
UACC-257 melanoma = tested on: UACC-257 melanoma
RPMI-8226 leukemia = tested on: RPMI-8226 leukemia
CCRF-CEM leukemia = tested on: CCRF-CEM leukemia
OVCAR-4 ovarian = tested on: OVCAR-4 ovarian
NCI-H23 lung = tested on: NCI-H23 lung
SK-MEL-2 melanoma = tested on: SK-MEL-2 melanoma
HCT-15 colon = tested on: HCT-15 colon
SK-MEL-28 melanoma = tested on: SK-MEL-28 melanoma

Measured: TGI

Cc1cc(-c2c(Br)cc(C(=O)O)n2C)on1
> 100 µM: all assays above
